Assay results as given in ChEMBL document CHEMBL1201862, “PubChem BioAssay data set” (2004).
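Grown in 96-well plates, cells were treated for 48 hours with each compound at five concentrations. Insufficient inhibition: endpoint recorded as highest concentration tested. GI50 = concentration required for 50% inhibition of growth.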 Calls of active or inactive are those of the source. No stated cut-off is given here; in the data, active = GI50 up to about 1.1 µM and inactive = higher.

Legend:
Assay in all cases: NCI tumour cell line growth inhibition, 48 h
786-0 = tested on: 786-0
A498 = tested on: A498
A549 = tested on: A549
ACHN = tested on: ACHN
CAKI-1 = tested on: CAKI-1
CCRF-CEM = tested on: CCRF-CEM
COLO 205 = tested on: COLO 205
DU-145 = tested on: DU-145
EKVX = tested on: EKVX
HCC 2998 = tested on: HCC 2998
HCT-116 = tested on: HCT-116
HCT-15 = tested on: HCT-15
HL-60 = tested on: HL-60
HOP-62 = tested on: HOP-62
HOP-92 = tested on: HOP-92
HT-29 = tested on: HT-29
Hs-578T = tested on: Hs-578T
IGROV-1 = tested on: IGROV-1
K562 = tested on: K562
KM12 = tested on: KM12
LOX IMVI = tested on: LOX IMVI
M14 = tested on: M14
MCF7 = tested on: MCF7
MDA-MB-435 = tested on: MDA-MB-435
MDA-N = tested on: MDA-N
MOLT-4 = tested on: MOLT-4
Malme-3M = tested on: Malme-3M
NCI-H23 = tested on: NCI-H23
NCI-H460 = tested on: NCI-H460
NCI-H522 = tested on: NCI-H522
NCI/ADR-RES = tested on: NCI/ADR-RES
OVCAR-3 = tested on: OVCAR-3
OVCAR-4 = tested on: OVCAR-4
OVCAR-5 = tested on: OVCAR-5
OVCAR-8 = tested on: OVCAR-8
PC-3 = tested on: PC-3
RPMI-8226 = tested on: RPMI-8226
RXF 393 = tested on: RXF 393
SF-268 = tested on: SF-268
SF-295 = tested on: SF-295
SF-539 = tested on: SF-539
SK-MEL-28 = tested on: SK-MEL-28
SK-MEL-2 = tested on: SK-MEL-2
SK-MEL-5 = tested on: SK-MEL-5
SK-OV-3 = tested on: SK-OV-3
SNB-19 = tested on: SNB-19
SNB-75 = tested on: SNB-75
SR = tested on: SR
SW-620 = tested on: SW-620
T47D = tested on: T47D
TK-10 = tested on: TK-10
U-251 = tested on: U-251
UACC-257 = tested on: UACC-257
UACC-62 = tested on: UACC-62
UO-31 = tested on: UO-31
MDA-MB-231 = tested on: MDA-MB-231
NCI-H226 = tested on: NCI-H226
SN12C = tested on: SN12C

Measured: GI50

O=C1O/C(=C\c2ccc(O)c(Br)c2)C(c2ccc(O)cc2)=C1Cl
active: CCRF-CEM 0.849 µM
inactive: 786-0 42 µM | A498 25.3 µM | A549 36.1 µM | ACHN 49.9 µM | CAKI-1 37 µM | COLO 205 47.5 µM | DU-145 61.1 µM | EKVX 32.6 µM | HCC 2998 39.1 µM | HCT-116 34.1 µM | HL-60 43.6 µM | HOP-62 46.7 µM | HOP-92 37.4 µM | HT-29 51.9 µM | Hs-578T 37.1 µM | IGROV-1 55.6 µM | K562 68.4 µM | KM12 34.2 µM | LOX IMVI 42.2 µM | M14 36.1 µM | MCF7 19.2 µM | MDA-MB-435 33.3 µM | MDA-N 26.1 µM | MOLT-4 65.8 µM | Malme-3M 38.5 µM | NCI-H23 22.4 µM | NCI-H460 26.6 µM | NCI-H522 26.5 µM | NCI/ADR-RES 29.6 µM | OVCAR-3 27.2 µM | OVCAR-4 40 µM | OVCAR-5 51.3 µM | OVCAR-8 42.5 µM | PC-3 51.1 µM | RPMI-8226 10.1 µM | RXF 393 29.9 µM | SF-268 27.7 µM | SF-295 40.5 µM | SF-539 40.6 µM | SK-MEL-28 > 100 µM | SK-MEL-2 40.1 µM | SK-MEL-5 22.4 µM | SK-OV-3 > 100 µM | SNB-19 89.3 µM | SNB-75 53.3 µM | SR 35.1 µM | SW-620 38.2 µM | T47D 58.3 µM | TK-10 45.6 µM | U-251 44.8 µM | UACC-257 42.7 µM | UACC-62 16.4 µM | UO-31 48.2 µM
36.6 µM: HCT-15

CN(C)CCCNC(=O)CNC(=O)c1cc(NC(=O)c2cc(NC(=O)c3cc(NC(=O)CCNC(=O)c4cc(NC(=O)c5cc(NC(=O)c6nccn6C)cn5C)cn4C)cn3C)cn2C)cn1C
inactive: 786-0 > 100 µM | A498 > 100 µM | A549 > 100 µM | ACHN > 100 µM | CAKI-1 > 100 µM | CCRF-CEM 24.5 µM | COLO 205 > 100 µM | DU-145 > 100 µM | EKVX > 100 µM | HCC 2998 > 100 µM | HCT-116 > 100 µM | HL-60 43 µM | HOP-62 > 100 µM | HOP-92 > 100 µM | HT-29 > 100 µM | Hs-578T > 100 µM | IGROV-1 > 100 µM | K562 59.4 µM | KM12 64.6 µM | LOX IMVI > 100 µM | M14 > 100 µM | MCF7 > 100 µM | MDA-MB-231 > 100 µM | MDA-MB-435 > 100 µM | MDA-N > 100 µM | MOLT-4 20.8 µM | Malme-3M > 100 µM | NCI-H226 > 100 µM | NCI-H23 > 100 µM | NCI-H460 > 100 µM | NCI-H522 > 100 µM | NCI/ADR-RES > 100 µM | OVCAR-3 > 100 µM | OVCAR-4 > 100 µM | OVCAR-5 > 100 µM | OVCAR-8 > 100 µM | PC-3 > 100 µM | RPMI-8226 > 100 µM | SF-268 > 100 µM | SF-295 > 100 µM | SF-539 > 100 µM | SK-MEL-28 > 100 µM | SK-MEL-2 > 100 µM | SK-MEL-5 > 100 µM | SK-OV-3 > 100 µM | SN12C > 100 µM | SNB-19 > 100 µM | SNB-75 41.3 µM | SW-620 > 100 µM | T47D > 100 µM | TK-10 > 100 µM | U-251 > 100 µM | UACC-257 > 100 µM | UO-31 > 100 µM
> 100 µM: HCT-15

C/C=C/C=C/c1cc2cc3c(c(O)c2c(=O)[nH]1)C1(CC3)C(=O)c2c(O)c3c(c(O)c2C1=O)C(=O)C(OC)=CC3=O (configuration not stated)
active: DU-145 0.378 µM | HL-60 < 0.01 µM | HOP-92 0.0328 µM | Hs-578T 0.132 µM | LOX IMVI 0.0205 µM | MCF7 0.0681 µM | MDA-MB-231 0.203 µM | MDA-MB-435 0.303 µM | MDA-N 0.267 µM | NCI/ADR-RES 0.283 µM | PC-3 0.0573 µM | T47D < 0.01 µM
